Among the test systems are ACHN renal; MOLT-4 leukemia; NCI-H522 lung; OVCAR-5 ovarian; SF-539 CNS; SK-MEL-28 melanoma; SK-OV-3 ovarian; SR leukemia; UACC-257 melanoma; UACC-62 melanoma.
Holding throughout (assay): DTP human tumour cell line panel, 48 h

What is called GI50 is the concentration at which growth is held to half of that of the control. The term TGI denotes the concentration at which net growth stops. Higher therefore signals less potent growth arrest.

“And” between values parts separate entries of the source, which are not always exact repeats. Equal values may be shown once.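 Test compounds were applied to cells in 96-well plates for 48 hours at 5 doses. Here, GI50 denotes the concentration required for 50% inhibition of growth. The concentration for full growth arrest is given as TGI.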

Consider `Cc1ccc(C)c(-c2csc(Nc3ccc(C)c(C)c3)n2)c1`, for which the GI50 with ACHN renal was 82.2 µM; with MOLT-4 leukemia, above 100 µM; with NCI-H522 lung it was 67.1 µM; in the experiment on OVCAR-5 ovarian, above 100 µM; in the experiment with SF-539 CNS it was 44.6 µM; in the experiment on SK-MEL-28 melanoma, above 100 µM. For the same compound, the GI50 in the experiment on SK-OV-3 ovarian, in the experiment on SR leukemia, in the experiment on UACC-257 melanoma and in the experiment with UACC-62 melanoma was above 100 µM each time. The concentration for total growth inhibition (TGI) in the experiment with ACHN renal, with MOLT-4 leukemia, in the experiment on NCI-H522 lung, in the experiment with OVCAR-5 ovarian, in the experiment on SF-539 CNS and in the experiment on SK-MEL-28 melanoma was above 100 µM each time. Moreover, the TGI with SK-OV-3 ovarian, in the experiment on SR leukemia, with UACC-257 melanoma and in the experiment on UACC-62 melanoma was above 100 µM throughout.

For `NC1=N/C(=C2/CCNC(=O)c3[nH]c(Br)cc32)C(=O)N1`, the TGI with ACHN renal is above 100 µM; in the experiment on MOLT-4 leukemia, above 52.6 µM; with NCI-H522 lung, 32.5 µM and 17.4 µM; with OVCAR-5 ovarian, above 100 µM; with SF-539 CNS, 17.3 µM and 35.5 µM; with SK-MEL-28 melanoma, above 100 µM. Further, the concentration for total growth inhibition (TGI) in the experiment with SK-OV-3 ovarian was above 100 µM; in the experiment on SR leukemia it was 2.25 µM; with UACC-257 melanoma, above 100 µM; in the experiment with UACC-62 melanoma it was above 100 µM. The GI50 is 7.44 µM and 2.54 µM with NCI-H522 lung; 4.29 µM and 13 µM with SF-539 CNS; 7.66 µM and 16.1 µM in the experiment with SK-OV-3 ovarian.

Turning to `COc1ccc([N+](=O)[O-])c(S(=O)(=O)c2ccc(Cl)cc2)n1`, the GI50 was 2.08 µM with ACHN renal; 3.59 µM in the experiment with MOLT-4 leukemia; 1.86 µM with NCI-H522 lung; 3.13 µM in the experiment with OVCAR-5 ovarian; 3.39 µM in the experiment with SF-539 CNS; 3.57 µM in the experiment on SK-MEL-28 melanoma. The GI50 in the experiment on SK-OV-3 ovarian is 15.1 µM; in the experiment with SR leukemia it was 3 µM; in the experiment with UACC-257 melanoma, 11.3 µM; with UACC-62 melanoma, 3.56 µM. The TGI is 4.11 µM with ACHN renal; above 100 µM with MOLT-4 leukemia; 3.77 µM in the experiment with NCI-H522 lung; 12.3 µM in the experiment with OVCAR-5 ovarian; 12.3 µM with SF-539 CNS; 14.2 µM in the experiment on SK-MEL-28 melanoma. Also, the TGI with SK-OV-3 ovarian is 31.9 µM; in the experiment on SR leukemia, above 100 µM; in the experiment with UACC-257 melanoma, 23.7 µM; with UACC-62 melanoma, 13.3 µM.

Consider `COc1cc2nc(Nc3cccc(F)c3)nc(Nc3cc(C)[nH]n3)c2cc1OC`, for which the GI50 in the experiment on ACHN renal is 1.78 µM; in the experiment on MOLT-4 leukemia, 1.89 µM; with NCI-H522 lung, 1.92 µM; in the experiment on OVCAR-5 ovarian, 1.76 µM; with SF-539 CNS, 1.78 µM; in the experiment on SK-MEL-28 melanoma, 1.77 µM. The GI50 is 1.86 µM in the experiment on SK-OV-3 ovarian, 2.27 µM in the experiment with SR leukemia, 1.87 µM in the experiment with UACC-257 melanoma and 1.85 µM in the experiment with UACC-62 melanoma. Further, the TGI turned out to be 3.17 µM in the experiment on ACHN renal; 5.76 µM in the experiment on MOLT-4 leukemia; 4.94 µM in the experiment with NCI-H522 lung; 3.2 µM in the experiment on OVCAR-5 ovarian; 3.18 µM in the experiment with SF-539 CNS; 3.2 µM with SK-MEL-28 melanoma. Moreover, the TGI turned out to be 3.37 µM in the experiment with SK-OV-3 ovarian, 8.36 µM in the experiment on SR leukemia, 3.64 µM in the experiment on UACC-257 melanoma and 3.66 µM in the experiment on UACC-62 melanoma.

For `O=C(Nc1nc2ncn(CC(COc3ccccc3)OC(=O)c3ccccc3)c2c(=O)[nH]1)c1ccccc1` (stereo not drawn), the TGI with ACHN renal, in the experiment with MOLT-4 leukemia, in the experiment with NCI-H522 lung, with OVCAR-5 ovarian, in the experiment on SF-539 CNS and with SK-MEL-28 melanoma was above 100 µM each time. The TGI with SK-OV-3 ovarian, in the experiment with SR leukemia, in the experiment on UACC-257 melanoma and with UACC-62 melanoma was above 100 µM throughout.

With `Cc1cc(Cl)cc2c1NC(=O)C2(O)C(C)C(=O)c1ccc(Cl)cc1` (stereo not drawn), the total growth inhibition concentration (TGI) with ACHN renal was above 100 µM; in the experiment with MOLT-4 leukemia it was 87.7 µM; with NCI-H522 lung it was above 100 µM; with OVCAR-5 ovarian it was above 100 µM; with SF-539 CNS, above 100 µM; in the experiment on SK-MEL-28 melanoma, above 100 µM. Besides, the TGI was above 100 µM with SK-OV-3 ovarian, above 91.2 µM in the experiment on SR leukemia, above 66.2 µM with UACC-257 melanoma and 44 µM in the experiment with UACC-62 melanoma.

`NS(=O)(=O)c1ccc(N2N=C3c4ccccc4CC3C2c2ccc(Cl)cc2)cc1` (stereo not drawn): the GI50 in the experiment on ACHN renal was 17.5 µM; in the experiment with MOLT-4 leukemia, 7.58 µM; with NCI-H522 lung, 8.44 µM; in the experiment with OVCAR-5 ovarian, 15.9 µM; in the experiment on SF-539 CNS, 9.07 µM; with SK-MEL-28 melanoma, 10 µM. The GI50 in the experiment on SK-OV-3 ovarian is 12.4 µM; with SR leukemia it was 2.19 µM; in the experiment on UACC-257 melanoma it was 11.4 µM; in the experiment on UACC-62 melanoma, 5.97 µM. The TGI is 31.6 µM with ACHN renal; above 100 µM with MOLT-4 leukemia; 28.6 µM with NCI-H522 lung; 56.5 µM in the experiment on OVCAR-5 ovarian; 30.8 µM in the experiment with SF-539 CNS; 28.7 µM with SK-MEL-28 melanoma. Moreover, the TGI in the experiment with SK-OV-3 ovarian was 49.4 µM; with SR leukemia it was above 100 µM; with UACC-257 melanoma, 32.6 µM; in the experiment with UACC-62 melanoma it was 22.7 µM.

In the case of `Nc1ncnc2c1ncn2C1OC(CO)=CC1O` (stereo not drawn), the TGI in the experiment on ACHN renal, with MOLT-4 leukemia, with NCI-H522 lung, with OVCAR-5 ovarian, with SF-539 CNS and in the experiment on SK-MEL-28 melanoma was above 37.5 µM throughout. For the same compound, the TGI in the experiment on SK-OV-3 ovarian, in the experiment on SR leukemia, with UACC-257 melanoma and with UACC-62 melanoma was above 37.5 µM each time.

`C[C@@H]1C=C2C(=O)O[C@@H]3CC[C@H](C1)[C@]23O`: the GI50 with ACHN renal is 3.93 µM; with MOLT-4 leukemia it was 3.08 µM; with NCI-H522 lung it was 2.24 µM; in the experiment on OVCAR-5 ovarian, 2.82 µM; in the experiment with SF-539 CNS, 3.18 µM; with SK-MEL-28 melanoma, 6.17 µM. For the same compound, the GI50 is 15.5 µM in the experiment with SK-OV-3 ovarian, 3.51 µM in the experiment with SR leukemia, 2.33 µM in the experiment with UACC-257 melanoma and 4.78 µM in the experiment with UACC-62 melanoma. The concentration for total growth inhibition (TGI) came out at 16.9 µM in the experiment on ACHN renal; 21 µM in the experiment on MOLT-4 leukemia; 9.43 µM in the experiment with NCI-H522 lung; 10.8 µM in the experiment on OVCAR-5 ovarian; 11.9 µM in the experiment with SF-539 CNS; 25.8 µM with SK-MEL-28 melanoma. Besides, the TGI is 64.3 µM in the experiment with SK-OV-3 ovarian, 19.6 µM in the experiment on SR leukemia, 16.2 µM with UACC-257 melanoma and 19.6 µM with UACC-62 melanoma.

The record behind these values is PubChem BioAssay (NCI).
